{"source": "patent US6258776A", "about": "“Calcium-regulated kinase” (priority 1997, dated 2001)", "key": {"[1]": {"test_system": "calmodulin", "details": "cited from earlier work"}, "[2]": {"test_system": "S100B", "experiment": "co-immunoprecipitation of Ndr with anti-S100B from COS-1 cells", "assay_type": "cell-based", "details": "co-expressed with S100B", "method": "For expression of Ndr and S100B in mammalian cells, the cDNAs encoding Ndr and S100B are cloned into the pECE vector, which directs expression driven by an SV40-derived promoter. In addition, an amino-terminal truncation mutant of Ndr lacking the first 84 amino acids (1-84) is used.\nThe plasmids encoding Ndr and S100B are transfected into COS-1 cells, either alone or in combination. Seventy-two hours later, cells extracts are prepared and immunoprecipitated with an antibody recognising S100B. In an anti-Ndr western blot of the cell extracts, it is shown that Ndr is expressed an expected."}, "[3]": {"test_system": "calmodulin (CaM-agarose)", "experiment": "binding of Ndr and deletion mutants from COS-1 cell lysates to CaM-agarose", "source_text": "In addition, the ability of untagged Ndr to interact with CaM is investigated. COS-1 cells are transfected with pECE or with derivative plasmids encoding wild-type Ndr, NdrΔ65-81 or NdrΔ1-84 (Millward, T. A., et al., (1995) Proc. Natl. Acad. Sci. USA 92, 5022-5026) using DEAE-dextran (Seed, B. and Aruffo, A. (1987) Proc. Natl. Acad. Sci. USA 84, 3365-3369). Seventy-two hours after transfection, cells are scraped into ice-cold phosphate-buffered saline (PBS), spun down, and disrupted in buffer A (TBS containing 1 mM dithiothreitol, 0.5 mM phenylmethylsulfonyl fluoride, 4 μM leupeptin and 1 mM benzamidine) using a tight-fitting all-glass dounce homogenizer. Extracts (20 μg) are adjusted to 1 mg/ml, supplemented with either 1 mM CaCl2 or 1 mM EGTA and then mixed for 2 h with 6 μl CaM-agarose. After washing three times with 1 ml of the corresponding binding buffer, the beads are eluted with buffer A containing 5 mM EGTA. Equal portions of the unbound and EGTA-eluted fractions are analysed by immunoblofting with anti-Ndr antibodies.\nSamples are separated by SDS-PAGE and electroblotted to Immobilon-P membranes (Millipore). Blots are incubated in blocking buffer (50 mM Tris-HCl pH 7.5, 150 mM NaCl, 1% (v/v) Triton X-1 00, 0.5% (v/v) Tween 20, 5% (w/v) skim milk powder) and then probed for 2 h with primary antibodies diluted in the same buffer. Ndr and GST-Ndr are detected with Ab^452-465 at 4 μg/ml (Millward, T. A., et al., Op. Cit.); GST is detected with an anti-GST antiserum (1 :1000 dilution). Bound antibodies are detected using horseradish peroxidase-conjugated donkey anti-rabbit IgG antibodies and ECL substrates (Amersham).\nTo verify whether this domain of Ndr is indeed responsible for its interaction with CaM, deletion mutants of Ndr are expressed in COS-1 cells and tested for CaM binding as above. […] In lysates supplemented with Ca^2 , deletion of amino acids 65-81 cause a large reduction in CaM binding (to ~10% of the level of wild-type binding) as assessed by western blotting."}}, "data": [{"substance": "Ndr: nuclear serine/threonine protein kinase", "values": [{"measurement": "binding to calmodulin", "setting": "[1]", "result": "capable of binding to calmodulin"}, {"measurement": "co-immunoprecipitation with anti-S100B", "setting": "[2]", "result": "anti-S100B antibodies co-immunoprecipitated Ndr"}, {"measurement": "binding to CaM-agarose", "setting": "[3]; lysate supplemented with EGTA", "result": "no detectable binding"}, {"measurement": "binding to CaM-agarose", "setting": "[3]; lysates supplemented with Ca^2+", "result": "quantitatively and selectively removed from the lysate by CaM-agarose"}]}]}
